Test results taken from patent US10208037B2, “Toll-like receptor-7 and -8 modulatory 1H imidazoquinoline derived compounds” (The University of Kansas, priority 2011, dated 2019).
Like-named read-outs stand apart in the source and are kept apart here.

Biological target: T1, TLR7 (Homo sapiens, UniProt Q9NYK1)
T1 construct: expressed in transfected cells; host or cells: HEK293 (HEK-Blue-7 cells)
T1 sequence (Q9NYK1 27-1049): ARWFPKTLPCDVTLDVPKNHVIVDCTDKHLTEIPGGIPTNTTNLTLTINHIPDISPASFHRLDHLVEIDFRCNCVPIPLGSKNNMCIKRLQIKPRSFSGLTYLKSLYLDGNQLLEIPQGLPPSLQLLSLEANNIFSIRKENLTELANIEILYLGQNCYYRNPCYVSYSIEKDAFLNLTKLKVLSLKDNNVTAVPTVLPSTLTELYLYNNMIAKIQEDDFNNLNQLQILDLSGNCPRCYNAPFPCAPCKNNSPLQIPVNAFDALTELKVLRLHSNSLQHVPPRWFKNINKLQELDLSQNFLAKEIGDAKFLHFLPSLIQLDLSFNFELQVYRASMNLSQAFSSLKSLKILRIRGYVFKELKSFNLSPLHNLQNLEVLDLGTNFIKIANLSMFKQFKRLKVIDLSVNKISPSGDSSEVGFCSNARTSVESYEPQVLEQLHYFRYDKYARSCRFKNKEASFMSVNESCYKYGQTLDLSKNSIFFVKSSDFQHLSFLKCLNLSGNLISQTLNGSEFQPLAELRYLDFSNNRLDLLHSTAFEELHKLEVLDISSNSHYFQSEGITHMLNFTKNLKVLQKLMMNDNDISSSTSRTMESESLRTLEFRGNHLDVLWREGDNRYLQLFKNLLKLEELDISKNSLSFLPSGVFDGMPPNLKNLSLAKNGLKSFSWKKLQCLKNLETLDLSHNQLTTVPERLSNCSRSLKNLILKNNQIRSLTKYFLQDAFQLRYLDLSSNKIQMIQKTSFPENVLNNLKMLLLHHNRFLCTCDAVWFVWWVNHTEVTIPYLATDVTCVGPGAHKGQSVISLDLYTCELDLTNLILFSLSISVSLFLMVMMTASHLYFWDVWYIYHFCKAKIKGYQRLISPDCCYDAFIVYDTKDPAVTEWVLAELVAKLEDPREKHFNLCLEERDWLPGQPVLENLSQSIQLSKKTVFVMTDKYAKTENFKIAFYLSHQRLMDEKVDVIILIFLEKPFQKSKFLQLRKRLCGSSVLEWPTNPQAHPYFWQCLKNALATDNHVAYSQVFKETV
Experiment: TLR7 reporter gene assay (NF-κB induction, HEK-Blue-7 cells), agonism
Assay type: cell-based
Text: NF-κB induction: The induction of NF-κB was quantified using HEK-Blue-7 cells and HEK-Blue-8 cells as previously described by us.^8,24 HEK293 cells were stably transfected with human TLR7 (or human TLR8), MD2, and secreted alkaline phosphatase (sAP), and were maintained in HEK-Blue™ Selection medium containing zeocin and normocin. Stable expression of secreted alkaline phosphatase (sAP) under control of NF-κB/AP-1 promoters is inducible by the TLR7 (or TLR8) agonists, and extracellular sAP in the supernatant is proportional to NF-κB induction. HEK-Blue cells were incubated at a density of […] in a volume of 80 μL/well, in 384-well, flat-bottomed, cell culture-treated microtiter plates until confluency was achieved, and subsequently graded concentrations of stimuli. sAP was assayed spectrophotometrically using an alkaline phosphatase-specific chromogen (present in HEK-detection medium as supplied by the vendor) at 620 nm.
The induction of NF-κB was quantified using HEK-Blue-3, HEK-Blue-7 and HEK-Blue-8 cells as previously described by us.^8,24,51 HEK293 cells were stably transfected with human TLR3 (or human TLR7 or human TLR8), MD2, and secreted alkaline phosphatase (sAP), and were maintained in HEK-Blue™ Selection medium containing zeocin and normocin. Stable expression of secreted alkaline phosphatase (sAP) under control of NF-κB/AP-1 promoters is inducible by the TLR3 (or TLR7 or TLR8) agonists, and extracellular sAP in the supernatant is proportional to NF-κB induction. HEK-Blue cells were incubated at a density of ˜10^5 cells/ml in a volume of 80 μl/well, in 384-well, flat-bottomed, cell culture-treated microtiter plates until confluency was achieved, and subsequently graded concentrations of stimuli. sAP was assayed spectrophotometrically using an alkaline phosphatase-specific chromogen (present in HEK-detection medium as supplied by the vendor) at 620 nm.

[1] = read-out: EC50 (agonistic activity)
[2] = Table 1, ND = not detected, read-out: TLR7 Agonism

EC50 [2] [nM]	SMILES	also measured
2050	CCCCc1nc2c(NCCCCNc3nc4ccccc4c4c3nc(CCCC)n4Cc3ccccc3)nc3ccccc3c2n1Cc1ccccc1 [Compound 51a, N^1,N^4-bis(1-benzyl-2-butyl-1H-imidazo[4,5-c]quinolin-4-yl)butane-1,4-diamine]	–
3000	CCCCc1nc2c(NCCCCCCCCCCNc3nc4ccccc4c4c3nc(CCCC)n4Cc3ccccc3)nc3ccccc3c2n1Cc1ccccc1 [Compound 51c, N^1,N^10-bis(1-benzyl-2-butyl-1H-imidazo[4,5-c]quinolin-4-yl)decane-1,10-diamine]	–
1420	CCCCc1nc2c(NCCCCCCCCCCCCNc3nc4ccccc4c4c3nc(CCCC)n4Cc3ccccc3)nc3ccccc3c2n1Cc1ccccc1 [Compound 51d, N^1,N^12-bis(1-benzyl-2-butyl-1H-imidazo[4,5-c]quinolin-4-yl)dodecane-1,12-diamine]	–
110	CCCCc1nc2c(N)nc3ccccc3c2n1Cc1ccc(CNC(=O)CCCCC(=O)NCc2ccc(Cn3c(CCCC)nc4c(N)nc5ccccc5c43)cc2)cc1 [Compound 52a, N^1,N^6-bis(4-((4-amino-2-butyl-1H-imidazo[4,5-c]quinolin-1-yl)methyl)benzyl)adipamide]	–
240	CCCCc1nc2c(N)nc3ccccc3c2n1Cc1ccc(CNC(=O)CCCCCCC(=O)NCc2ccc(Cn3c(CCCC)nc4c(N)nc5ccccc5c43)cc2)cc1 [Compound 52b, N^1,N-bis(4-((4-amino-2-butyl-1H-imidazo[4,5-c]quinolin-1-yl)methyl)benzyl)octanediamide]	–
560	CCCCc1nc2c(N)nc3ccc([N+](=O)[O-])cc3c2n1Cc1ccc(CN)cc1 [Compound 53a, 1-(4-(aminomethyl)benzyl)-2-butyl-8-nitro-1H-imidazo[4,5-c]quinolin-4-amine]	–
450	CCCCc1nc2c(N)nc3ccc(N)cc3c2n1Cc1ccc(CN)cc1 [Compound 54a, 1-(4-(aminomethyl)benzyl)-2-butyl-1H-imidazo[4,5-c]quinoline-4,8-diamine]	–
7240	CCCCc1nc2c(N)nc3ccc(NC(=O)CCCCC(=O)Nc4ccc5nc(N)c6nc(CCCC)n(Cc7ccc(CN)cc7)c6c5c4)cc3c2n1Cc1ccc(CN)cc1 [Compound 55a, N^1,N^6-bis(4-amino-1-(4-(aminomethyl)benzyl)-2-butyl-1H-imidazo[4,5-c]quinolin-8-yl) adipamide]	–
4020	CCCCc1nc2c(N)nc3ccc(NC(=O)CCCCCCC(=O)Nc4ccc5nc(N)c6nc(CCCC)n(Cc7ccc(CN)cc7)c6c5c4)cc3c2n1Cc1ccc(CN)cc1 [Compound 55b, N^1,N^8-bis(4-amino-1-(4-(aminomethyl)benzyl)-2-butyl-1H-imidazo[4,5-c]quinolin-8-yl)octanediamide]	–

More lines, now with the values behind:

SMILES	EC50 [2] [nM]	also measured
CCCCc1nc2c(N)nc3ccccc3c2n1Cc1cccc2ccccc12 [Compound 6a]	–	TLR7-agonistic activity (in words): inactive
CCCCc1nc2c(N)nc3ccccc3c2n1Cc1ccc(-c2ccccc2)cc1 [Compound 6b, 1-(Biphenyl-4-ylmethyl)-2-butyl-1H-imidazo[4,5-c]quinolin-4-amine]	–	EC50 [1]: 396 nM
CCCCc1nc2c(N)nc3ccccc3c2n1Cc1ccc(CNC(=S)Nc2cccc(-c3c4ccc(=O)cc-4oc4cc(O)ccc34)c2C(=O)O)cc1 [Compound 26, 2-(3-(4-((4-Amino-2-butyl-1H-imidazo [4,5-c]quinolin-1-yl)methyl)benzyl)thioureido)-6-(6-hydroxy-3-oxo-3H-xanthen-9-yl)benzoic Acid]	–	TLR7-agonistic activity (in words): retain TLR7 agonistic activity
CCCCc1nc2c(N)nc3ccccc3c2n1Cc1ccc(CNC(=S)Nc2ccc(-c3c4ccc(=[N+](CC)CC)cc-4oc4cc(N(CC)CC)ccc34)c(C(=O)O)c2)cc1 [Compound 27, N-(9-(4-(3-(4-((4-amino-2-butyl-1H-imidazo[4,5-c]quinolin-1-yl)methyl)benzyl)thioureido)-2-carboxyphenyl)-6-(diethylamino)-3H-xanthen-3-ylidene)-N-ethylethanaminium]	–	TLR7-agonistic activity (in words): retain TLR7 agonistic activity
CCCCc1nc2c(N)nc3ccccc3c2n1Cc1ccc(CNC(=S)NCC(=O)NCC(=O)NCC(=O)OC)cc1 [Compound 29, Methyl 1-(4-((4-amino-2-butyl-1H-imidazo[4,5-c]quinolin-1-yl)methyl)phenyl)-6,9-dioxo-3-thioxo-2,4,7,10-tetraazadodecan-12-oate]	–	EC50 [1]: 269 nM
CCCCc1nc2c(N)nc3ccccc3c2n1Cc1ccc(CNC(=O)CCN2C(=O)CC(SC[C@@H](NC(=O)CC[C@@H](N)C(=O)OC)C(=O)NCC(=O)OC)C2=O)cc1 (stereo partly drawn) [Compound 30b, (2R)-methyl 2-amino-5-((2S)-3-(1-(3-(4-((4-amino-2-butyl-1H-imidazo[4,5-c]quinolin-1-yl)methyl)benzylamino)-3-oxopropyl)-2,5-dioxopyrrolidin-3-ylthio)-1-(2-methoxy-2-oxoethylamino)-1-oxopropan-2-ylamino)-5-oxopentanoate]	–	EC50 [1]: 2200 nM
CCCCc1nc2c(NCCCCCCCCNc3nc4ccccc4c4c3nc(CCCC)n4Cc3ccccc3)nc3ccccc3c2n1Cc1ccccc1 [Compound 51b, N^1,N-bis(1-benzyl-2-butyl-1H-imidazo[4,5-c]quinolin-4-yl)octane-1,8-diamine]	560	–
